Results taken from patent US20060069132A1, “Azolecarboxamide herbicides” (priority 2004, published 2006).

Columns and labels:
[1] = test system: large crabgrass; assay: Test C pre-/postemergence herbicide test; type: in vivo, Digitaria sanguinalis; conditions: preemergence
Procedure, shortened: (§1)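 Preemergence: seeds planted and treated with compound in non-phytotoxic solvent with surfactant; postemergence: plants at 2 to 18 cm (1- to 4-leaf stage) sprayed likewise. Kept in greenhouse 12 to 14 days, then visually rated against controls, 0 (no effect) to 100 (complete control).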

[2] = test system: barnyardgrass; assay: Test C flooded paddy test; type: in vivo, Echinochloa crus-galli; conditions: for Plant response rating, Barnyardgrass: 500 g ai/ha, visual rating after 12 to 14 days
Procedure, shortened: (§2)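 Postemergence sprays applied to plants 2 to 18 cm tall (1- to 4-leaf stage); paddy species grown to 2-leaf stage under flooding. After 12 to 14 days in greenhouse, visual rating versus untreated controls on 0–100 scale (0 no effect, 100 complete control).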

[3] = test system: kochia; assay: Test C pre-/postemergence herbicide test; type: in vivo, Kochia scoparia; conditions: preemergence
Procedure, shortened: as §1

[4] = test system: soybean; assay: Test C pre-/postemergence herbicide test; type: in vivo, Glycine max; conditions: preemergence
Procedure, shortened: as §1

[5] = test system: giant foxtail; assay: Test C pre-/postemergence herbicide test; type: in vivo, Setaria faberi; conditions: preemergence
Procedure, shortened: as §1

[6] = test system: ducksalad; assay: Test C flooded paddy test; type: in vivo, Heteranthera limosa; conditions: for Plant response rating, Ducksalad: 500 g ai/ha, visual rating after 12 to 14 days
[7] = test system: lambsquarters; assay: Test C pre-/postemergence herbicide test; type: in vivo, Chenopodium album; conditions: preemergence
Procedure, shortened: as §1

[8] = test system: rice; assay: Test C flooded paddy test; type: in vivo, Oryza sativa; conditions: for Plant response rating, Rice: 500 g ai/ha, visual rating after 12 to 14 days
Procedure, shortened: as §2

[9] = test system: bermudagrass; assay: Test C pre-/postemergence herbicide test; type: in vivo, Cynodon dactylon; conditions: for Plant response rating, Bermudagrass: preemergence; for Bermudagrass plant response rating: Preemergence, 500 g ai/ha
Procedure, shortened: as §1

[10] = test system: common (oilseed) sunflower; assay: Test C pre-/postemergence herbicide test; type: in vivo, Helianthus annuus; conditions: preemergence
Procedure, shortened: as §1

[11] = 125 g ai/ha, scale 0 (no effect) to 100 (complete control), visual, 12 to 14 days
[12] = 500 g ai/ha, scale 0 to 100 (0 no effect, 100 complete control), visual, 12 to 14 days
[13] = 62 g ai/ha, scale 0 to 100 (0 no effect, 100 complete control)
[14] = 125 g ai/ha, scale 0 to 100 (0 no effect, 100 complete control)
[15] = 250 g ai/ha, scale of 0 to 100, 0 is no effect, 100 is complete control
[16] = scale 0 to 100 (0 no effect, 100 complete control)
[17] = 62 g ai/ha, scale 0 to 100, 0 no effect, 100 complete control
[18] = scale 0 to 100, 0 no effect, 100 complete control

Row | Structure (SMILES) | Plant response rating, Crabgrass, Large ([1]; 62 g ai/ha, scale 0 to 100) | Plant response rating, Crabgrass, Large [1, 11] | Plant response rating, Crabgrass, Large ([1]; 250 g ai/ha, scale 0-100) | Plant response rating, Crabgrass, Large [1, 12] | Barnyardgrass plant response rating [2, 13] | Barnyardgrass plant response rating [2, 14] | Barnyardgrass plant response rating [2, 15] | Plant response rating, Barnyardgrass [2, 16] | Plant response rating, Kochia ([3]; 62 g ai/ha, scale 0 to 100) | Plant response rating, Kochia [3, 11] | Plant response rating, Kochia ([3]; 250 g ai/ha, scale 0-100) | Plant response rating, Kochia [3, 12] | Plant response rating, Soybean ([4]; 62 g ai/ha, scale 0 to 100) | Plant response rating, Soybean ([4]; 250 g ai/ha, scale 0-100) | Plant response rating, Soybean [4, 12] | Plant response rating, Foxtail, Giant [5, 11] | Plant response rating, Foxtail, Giant ([5]; 250 g ai/ha, scale 0-100) | Plant response rating, Foxtail, Giant [5, 12] | Ducksalad plant response rating ([6]; 62 g ai/ha, scale 0 to 100) | Ducksalad plant response rating [6, 14] | also measured
1 | CCc1nn(C(C)(C)C)cc1C(=O)Nc1cc(C(=O)N(C)C)ccn1 [Compound 293] | 95 | 95 | 100 | 100 | 0 | 20 | 70 | 80 | 100 | 100 | 100 | 100 | 0 | 90 | 100 | 70 | 100 | 100 | 0 | 65 | Plant response rating, Foxtail, Giant ([5]; 62 g ai/ha, scale 0 to 100): 10; Ducksalad plant response rating [6, 15]: 80; Plant response rating, Ducksalad [6, 16]: 95; Plant response rating, Lambsquarters ([7]; 62 g ai/ha, scale 0 to 100): 100; Plant response rating, Lambsquarters [7, 11]: 100; Plant response rating, Lambsquarters ([7]; 250 g ai/ha, scale 0-100): 100; Plant response rating, Lambsquarters [7, 12]: 100; Rice plant response rating ([8]; 62 g ai/ha, scale 0 to 100): 0; Rice plant response rating [8, 14]: 30; Rice plant response rating [8, 15]: 65; Plant response rating, Rice [8, 16]: 80; Plant response rating, Bermudagrass [9, 17]: 90; Plant response rating, Bermudagrass [9, 11]: 95; Plant response rating, Bermudagrass ([9]; 250 g ai/ha, scale 0-100): 100; Bermudagrass plant response rating [9, 18]: 100; Plant response rating, Sunflower ([10]; 62 g ai/ha, scale 0 to 100): 10; Plant response rating, Sunflower ([10]; 250 g ai/ha, scale 0-100): 65
2 | CCn1nc(C(C)(C)C)cc1C(=O)Nc1cc(C(=S)N(C)C)ccc1F [Compound 294] | 70 | 95 | 100 | 100 | 75 | 90 | 95 | 100 | 100 | 100 | 100 | 100 | 70 | 100 | 100 | 80 | 90 | 90 | 90 | 95 | Ducksalad plant response rating [6, 15]: 95; Plant response rating, Ducksalad [6, 16]: 95; Plant response rating, Lambsquarters ([7]; 62 g ai/ha, scale 0 to 100): 100; Plant response rating, Lambsquarters [7, 11]: 100; Plant response rating, Lambsquarters ([7]; 250 g ai/ha, scale 0-100): 100; Plant response rating, Lambsquarters [7, 12]: 100; Rice plant response rating ([8]; 62 g ai/ha, scale 0 to 100): 70; Rice plant response rating [8, 14]: 75; Rice plant response rating [8, 15]: 85; Plant response rating, Rice [8, 16]: 90; Plant response rating, Bermudagrass [9, 17]: 70; Plant response rating, Bermudagrass [9, 11]: 80; Plant response rating, Bermudagrass ([9]; 250 g ai/ha, scale 0-100): 90; Bermudagrass plant response rating [9, 18]: 90; Plant response rating, Sunflower ([10]; 62 g ai/ha, scale 0 to 100): 30; Plant response rating, Sunflower ([10]; 250 g ai/ha, scale 0-100): 100; Plant response rating, Sunflower [10, 12]: 100
3 | CCn1nc(C2(C)CC2)cc1C(=O)Nc1cc(C(=O)N(C)C)ccc1F [Compound 299] | 100 | 100 | 100 | 100 | 85 | 85 | 95 | 95 | 100 | 100 | 100 | 100 | 55 | 90 | 95 | 100 | 100 | 100 | 95 | 95 | Plant response rating, Foxtail, Giant ([5]; 62 g ai/ha, scale 0 to 100): 100; Ducksalad plant response rating [6, 15]: 95; Plant response rating, Ducksalad [6, 16]: 95; Plant response rating, Lambsquarters ([7]; 62 g ai/ha, scale 0 to 100): 100; Plant response rating, Lambsquarters [7, 11]: 100; Plant response rating, Lambsquarters ([7]; 250 g ai/ha, scale 0-100): 100; Plant response rating, Lambsquarters [7, 12]: 100; Rice plant response rating ([8]; 62 g ai/ha, scale 0 to 100): 70; Rice plant response rating [8, 14]: 80; Rice plant response rating [8, 15]: 80; Plant response rating, Rice [8, 16]: 85; Plant response rating, Bermudagrass [9, 17]: 100; Plant response rating, Bermudagrass [9, 11]: 100; Plant response rating, Bermudagrass ([9]; 250 g ai/ha, scale 0-100): 100; Bermudagrass plant response rating [9, 18]: 100; Plant response rating, Sunflower ([10]; 62 g ai/ha, scale 0 to 100): 10; Plant response rating, Sunflower ([10]; 250 g ai/ha, scale 0-100): 100; Plant response rating, Sunflower [10, 12]: 100
4 | CCn1nc(C(C)(C)C)cc1C(=S)Nc1cc(C(=S)N(C)C)ccc1F [Compound 305] | 70 | 100 | 100 | 100 | 70 | 85 | 95 | 100 | 100 | 100 | 100 | 100 | 0 | 90 | 100 | 85 | 100 | 100 | 0 | 0 | Plant response rating, Foxtail, Giant ([5]; 62 g ai/ha, scale 0 to 100): 35; Ducksalad plant response rating [6, 15]: 0; Plant response rating, Ducksalad [6, 16]: 0; Plant response rating, Lambsquarters ([7]; 62 g ai/ha, scale 0 to 100): 100; Plant response rating, Lambsquarters [7, 11]: 100; Plant response rating, Lambsquarters ([7]; 250 g ai/ha, scale 0-100): 100; Plant response rating, Lambsquarters [7, 12]: 100; Rice plant response rating ([8]; 62 g ai/ha, scale 0 to 100): 75; Rice plant response rating [8, 14]: 80; Rice plant response rating [8, 15]: 85; Plant response rating, Rice [8, 16]: 85; Plant response rating, Bermudagrass [9, 17]: 80; Plant response rating, Bermudagrass [9, 11]: 85; Plant response rating, Bermudagrass ([9]; 250 g ai/ha, scale 0-100): 100; Bermudagrass plant response rating [9, 18]: 100; Plant response rating, Sunflower ([10]; 62 g ai/ha, scale 0 to 100): 0; Plant response rating, Sunflower ([10]; 250 g ai/ha, scale 0-100): 0; Plant response rating, Sunflower [10, 12]: 50
5 | CCNC(=O)c1cccc(NC(=O)c2cc(C3(C)CC3)nn2CC)c1 [Compound 306] | 100 | 100 | 100 | 100 | 0 | 45 | 55 | 70 | 0 | 80 | 100 | 100 | 5 | 15 | 40 | 40 | 90 | 100 | 50 | 80 | Plant response rating, Foxtail, Giant ([5]; 62 g ai/ha, scale 0 to 100): 5; Ducksalad plant response rating [6, 15]: 80; Plant response rating, Ducksalad [6, 16]: 90; Plant response rating, Lambsquarters ([7]; 62 g ai/ha, scale 0 to 100): 100; Plant response rating, Lambsquarters [7, 11]: 100; Plant response rating, Lambsquarters ([7]; 250 g ai/ha, scale 0-100): 100; Plant response rating, Lambsquarters [7, 12]: 100; Rice plant response rating ([8]; 62 g ai/ha, scale 0 to 100): 30; Rice plant response rating [8, 14]: 40; Rice plant response rating [8, 15]: 55; Plant response rating, Rice [8, 16]: 70; Plant response rating, Bermudagrass [9, 17]: 40; Plant response rating, Bermudagrass [9, 11]: 85; Plant response rating, Bermudagrass ([9]; 250 g ai/ha, scale 0-100): 90; Bermudagrass plant response rating [9, 18]: 100; Plant response rating, Sunflower ([10]; 62 g ai/ha, scale 0 to 100): 0; Plant response rating, Sunflower ([10]; 250 g ai/ha, scale 0-100): 0; Plant response rating, Sunflower [10, 12]: 0
